Here are results for 1 substance from patent US20260115201A1, “POTENTIAL THERAPEUTICS FOR FIBROSIS BY BLOCKING THE INCREASE OF A KEY ENZYME” (THE TEXAS A&M UNIVERSITY SYSTEM, priority 2022, published 2026).

The assay has as its system bleomycin treated mice. Description: Bleomycin-induced pulmonary fibrosis in mice (survival, weight, BAL cells, lung collagen). In kind it is in vivo, C57BL/6 mice. The method, then: The successful aspiration of bleomycin into the lungs was confirmed by listening for a crackling noise heard after the aspiration. 100 μl DMSO or 20 mg/kg RK33 in 100 μl DMSO was given to mice by intraperitoneal (IP) injection at day 10, 12, 14, 16, 18 and 20 after bleomycin treatment. Mice were weighed daily, and euthanized using CO2 following NIH guidelines at day 21 after bleomycin aspiration. The experiment was performed in accordance with the recommendations in the Guide for the Care and Use of Laboratory Animals of the National Institutes of Health. The Texas A&M University Animal Use and Care Committee approved the protocol.
The BALs were clarified by centrifugation at 500×g for 10 minutes, and the supernatants were transferred to Eppendorf tubes. The cells collected from BAL were counted, and BAL cytospins were prepared as described in Fibroblasts secrete Slit2 to inhibit fibrocyte differentiation and fibrosis, Proc Natl Acad Sci USA, 2014, 111: 18291-18296. BAL cytospins were fixed and treated with Wright-Giemsa stain (#08711, Polysciences, Inc., Warrington, PA) following Variation of differential cell counts of bronchoalveolar lavage fluid, Archives of pathology & laboratory medicine, 1986, 110(4): 341-343.
After collection of BAL fluid, mouse lungs were inflated with prewarmed Optimal Cutting Temperature (OCT) embedding medium (VWR, Radnor, PA) and then embedded in OCT, frozen on dry ice, and then stored at −80° C. 8-micron cryosections of mouse lungs were mounted on Superfrost Plus® microscope slides (VWR). The sections on the slides were allowed to air-dry for 24-48 hours. Total collagen on the mouse lung sections were stained with picrosirius red as described in Reduction of bleomycin-induced pulmonary fibrosis by serum amyloid P, J Immunol, 2007, 179: 4035-4044. Hydroxyproline in the mouse lung tissue was measured with a hydroxyproline assay as described in Attenuated pulmonary fibrosis in sialidase-3 knockout (Neu3−/−) mice, Am J Physiol Lung Cell Mol Physiol, 2020, 318(1): L165-L179.

The mark [1] stands for this setting: 20 mg/kg IP, day 21 (FIGS. 6A-6B).

On to “(diimidazo[4,5-d:4′,5′-f]-[1,3]diazepine) [RK33]”, for which, where the note is “20 mg/kg IP at day 10, 12, 14, 16, 18 and 20, to day 21 (FIG. 3)”, the survival rate result is given as “dramatically increased”. For the setting “20 mg/kg IP at day 10-20 every other day (FIG. 4)”, the body weight recovery entry is listed as “improved”. In addition, the “total cell number in BAL” value (20 mg/kg IP, day 21 (FIG. 5A)) is “significantly blocked the bleomycin effect”. Besides, the “total collagen in lungs, hydroxyproline assay” value (20 mg/kg IP, day 21 (FIG. 7)) was “reduced the abnormally high levels of collagen”. Also, under setting [1], the “difference between lung of bleomycin+RK33 treated mouse and control mouse, picrosirius red collagen” value is listed as “no significant difference”; the “total collagen in lungs, picrosirius red staining” value was “reduced the abnormally high levels of collagen”. Moreover, the “percentage of lymphocytes in BAL” value (20 mg/kg IP, day 21, Wright-Giemsa stain (FIG. 5B)) is “significantly blocked the bleomycin effect”.
